Data published in ChEMBL document CHEMBL1909046, “DrugMatrix in vitro pharmacology data”.

Tests used:
[1] = DRUGMATRIX: GABAA, Flunitrazepam, Central radioligand binding (ligand: [3H] Flunitrazepam); type: cell membranes, Rattus norvegicus, Wistar, Brain, Membrane; details: Not Active = under 50% inhibition at 10 µM
[2] = DRUGMATRIX: Platelet-Derived Growth Factor (PDGF) radioligand binding (ligand: [125I] PDGF); type: cell-based; details: nih3t3; Not Active = under 50% inhibition at 10 µM
[3] = target: T1, Polyunsaturated fatty acid lipoxygenase ALOX15 (Oryctolagus cuniculus, UniProt P12530); assay: biochemical; type: tissue-based, Reticulocytes;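 also: inhibition of 15-lipoxygenase enzyme activity measured with linoleic acid as the substrate; in other assays of this panel Not Active means under 50% inhibition at 10 µM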
T1 sequence (P12530 whole entry): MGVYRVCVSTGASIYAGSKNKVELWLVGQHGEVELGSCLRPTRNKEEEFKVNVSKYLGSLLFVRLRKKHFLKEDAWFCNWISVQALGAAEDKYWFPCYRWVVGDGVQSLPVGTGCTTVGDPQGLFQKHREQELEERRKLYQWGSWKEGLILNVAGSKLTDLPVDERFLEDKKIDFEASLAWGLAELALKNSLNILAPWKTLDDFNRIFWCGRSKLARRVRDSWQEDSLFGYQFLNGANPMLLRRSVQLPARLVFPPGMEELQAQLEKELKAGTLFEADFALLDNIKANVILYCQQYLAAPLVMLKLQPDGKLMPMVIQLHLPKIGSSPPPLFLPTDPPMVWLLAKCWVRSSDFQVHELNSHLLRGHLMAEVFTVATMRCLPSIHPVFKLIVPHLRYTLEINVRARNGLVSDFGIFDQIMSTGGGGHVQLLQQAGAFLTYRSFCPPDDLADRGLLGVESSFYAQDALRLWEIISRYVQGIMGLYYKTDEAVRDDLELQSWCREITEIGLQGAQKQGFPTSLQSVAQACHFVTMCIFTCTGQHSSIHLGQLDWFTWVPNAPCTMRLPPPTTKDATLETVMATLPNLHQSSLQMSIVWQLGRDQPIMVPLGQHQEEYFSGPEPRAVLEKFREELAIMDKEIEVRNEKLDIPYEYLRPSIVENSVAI

[4] = DRUGMATRIX: Purinergic P2X radioligand binding (ligand: [3H] alpha, beta-Methylene-ATP); type: cell membranes, Oryctolagus cuniculus, New Zealand albino, Urinary bladder, Membrane; details: Not Active = under 50% inhibition at 10 µM
[5] = target: Mitogen-activated protein kinase 14 (Homo sapiens, UniProt Q16539); design: species or system Escherichia coli;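 also: inhibition of p38alpha enzyme activity in a biochemical kinase assay, with myelin basic protein serving as substrate; in other assays of this panel Not Active means under 50% inhibition at 10 µM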
Thromboxane-A synthase = target: T2, Thromboxane-A synthase (Homo sapiens, UniProt P24557); assay: biochemical; type: tissue-based, Platelet;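 also: enzyme inhibition assay with PGH2 supplied as substrate; in other assays of this panel Not Active means under 50% inhibition at 10 µM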
T2 sequence (P24557 whole entry): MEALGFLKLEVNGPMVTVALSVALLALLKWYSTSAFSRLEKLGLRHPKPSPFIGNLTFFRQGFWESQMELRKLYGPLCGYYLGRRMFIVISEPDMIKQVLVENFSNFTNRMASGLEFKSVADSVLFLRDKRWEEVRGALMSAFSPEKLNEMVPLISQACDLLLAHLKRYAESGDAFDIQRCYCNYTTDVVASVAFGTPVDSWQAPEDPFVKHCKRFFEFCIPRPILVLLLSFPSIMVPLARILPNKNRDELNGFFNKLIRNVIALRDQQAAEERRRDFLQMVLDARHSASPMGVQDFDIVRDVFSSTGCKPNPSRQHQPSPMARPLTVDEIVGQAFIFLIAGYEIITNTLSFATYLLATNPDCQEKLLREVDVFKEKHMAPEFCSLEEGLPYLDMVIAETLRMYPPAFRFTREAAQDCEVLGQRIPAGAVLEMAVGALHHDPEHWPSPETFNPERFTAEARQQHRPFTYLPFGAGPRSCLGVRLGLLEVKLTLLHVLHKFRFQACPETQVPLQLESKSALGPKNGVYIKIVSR

[6] = target: Epidermal growth factor receptor (Homo sapiens, UniProt P00533); assay: DRUGMATRIX: Protein Tyrosine Kinase, EGF Receptor enzyme inhibition (substrate: Poly(Glu:Tyr)); type: cell-based, Insect cells; details: insect cells; Not Active = under 50% inhibition at 10 µM
Epidermal growth factor receptor, sequence (P00533 whole entry): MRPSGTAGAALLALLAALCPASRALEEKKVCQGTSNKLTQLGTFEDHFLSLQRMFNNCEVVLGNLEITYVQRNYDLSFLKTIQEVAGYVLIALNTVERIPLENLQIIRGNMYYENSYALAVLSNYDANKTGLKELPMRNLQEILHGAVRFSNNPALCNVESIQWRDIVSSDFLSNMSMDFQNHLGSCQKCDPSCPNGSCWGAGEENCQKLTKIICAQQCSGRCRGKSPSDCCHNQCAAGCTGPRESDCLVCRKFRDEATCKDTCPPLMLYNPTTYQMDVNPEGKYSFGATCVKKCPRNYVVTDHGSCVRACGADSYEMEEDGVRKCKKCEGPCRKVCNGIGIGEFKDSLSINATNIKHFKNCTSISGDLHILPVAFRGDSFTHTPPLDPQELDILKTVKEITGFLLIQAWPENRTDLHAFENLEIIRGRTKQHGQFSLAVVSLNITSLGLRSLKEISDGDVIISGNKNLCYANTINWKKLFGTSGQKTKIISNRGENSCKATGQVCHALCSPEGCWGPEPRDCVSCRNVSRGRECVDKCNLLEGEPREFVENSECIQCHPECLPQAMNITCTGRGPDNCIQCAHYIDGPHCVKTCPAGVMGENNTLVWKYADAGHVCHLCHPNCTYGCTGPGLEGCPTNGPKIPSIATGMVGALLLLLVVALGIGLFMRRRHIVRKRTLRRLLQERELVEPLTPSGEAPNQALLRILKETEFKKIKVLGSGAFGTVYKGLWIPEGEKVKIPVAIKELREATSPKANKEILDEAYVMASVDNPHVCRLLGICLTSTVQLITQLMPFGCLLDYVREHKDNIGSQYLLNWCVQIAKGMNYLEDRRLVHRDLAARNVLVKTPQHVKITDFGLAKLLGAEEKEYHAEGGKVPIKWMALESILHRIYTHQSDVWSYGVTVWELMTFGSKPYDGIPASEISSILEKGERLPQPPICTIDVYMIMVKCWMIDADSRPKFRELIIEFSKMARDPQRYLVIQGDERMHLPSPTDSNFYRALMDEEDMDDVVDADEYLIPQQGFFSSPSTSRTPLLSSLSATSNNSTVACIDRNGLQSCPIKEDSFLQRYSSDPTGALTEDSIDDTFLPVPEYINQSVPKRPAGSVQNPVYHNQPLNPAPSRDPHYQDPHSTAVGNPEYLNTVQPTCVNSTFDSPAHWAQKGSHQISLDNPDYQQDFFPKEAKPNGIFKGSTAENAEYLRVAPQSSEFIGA

Mitogen-activated protein kinase 14, sequence (Q16539 whole entry): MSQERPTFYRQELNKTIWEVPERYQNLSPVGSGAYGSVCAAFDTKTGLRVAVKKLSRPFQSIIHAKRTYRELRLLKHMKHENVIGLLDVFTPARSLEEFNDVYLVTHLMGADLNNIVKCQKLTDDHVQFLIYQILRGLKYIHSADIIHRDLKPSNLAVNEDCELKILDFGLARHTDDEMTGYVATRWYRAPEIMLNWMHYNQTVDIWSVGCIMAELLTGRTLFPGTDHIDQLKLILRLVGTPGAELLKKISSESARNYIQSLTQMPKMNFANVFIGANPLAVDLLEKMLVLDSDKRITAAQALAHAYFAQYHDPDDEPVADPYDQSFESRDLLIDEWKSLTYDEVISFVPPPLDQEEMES

| Compound | IC50 [1] | Ki [1] | IC50 [2] | Ki [2] | IC50 ([3]; reticulocytes) | IC50 [4] | Ki [4] | IC50 [5] | IC50 (Thromboxane-A synthase; platelet) | IC50 [6] | IC50 ([1]; read-out: IC50) [nM] | Ki ([1]; read-out: Ki) [nM] | IC50 ([3]; read-out: IC50) [nM] | IC50 (Thromboxane-A synthase; read-out: IC50) [nM] |
| --- | --- | --- | --- | --- | --- | --- | --- | --- | --- | --- | --- | --- | --- | --- |
| NC[C@H]1CC[C@H](C(=O)O)CC1 [TRANEXAMIC ACID] | Not Active | Not Active | Not Active | Not Active | Not Active | Not Active | Not Active | Not Active | Not Active | Not Active |  |  |  |  |
| CC[C@@H](CO)NC(=O)[C@@H]1C=C2c3cccc4[nH]cc(c34)C[C@H]2N(C)C1 [METHYLERGONOVINE] | Not Active | Not Active | Not Active | Not Active | Not Active | Not Active | Not Active | Not Active | Not Active | Not Active |  |  |  |  |
| c1ccc([C@H]2CN3CCSC3=N2)cc1 [LEVAMISOLE] | Not Active | Not Active | Not Active | Not Active | Not Active | Not Active | Not Active | Not Active | Not Active | Not Active |  |  |  |  |
| OCCN(CCO)c1nc(N2CCCCC2)c2nc(N(CCO)CCO)nc(N3CCCCC3)c2n1 [DIPYRIDAMOLE] |  |  | Not Active | Not Active |  | Not Active | Not Active | Not Active | Not Active | Not Active | 382 | 311 | 6960 |  |
| CC(C)(C)NC(=O)[C@@H]1C[C@@H]2CCCC[C@@H]2CN1C[C@@H](O)[C@H](Cc1ccccc1)NC(=O)[C@H](CC(N)=O)NC(=O)c1ccc2ccccc2n1 | Not Active | Not Active | Not Active | Not Active | Not Active | Not Active | Not Active | Not Active |  | Not Active |  |  |  | 2180 |
| Nc1nc2nc[nH]c2c(=S)[nH]1 [THIOGUANINE] | Not Active | Not Active | Not Active | Not Active |  | Not Active | Not Active | Not Active | Not Active | Not Active |  |  | 16200 |  |
